Measurements from ChEMBL document CHEMBL1127385, “Synthesis and diuretic activity of alkyl- and arylguanidine analogs of N,N'-dicyclohexyl-4-morpholinecarboxamidine in rats and dogs” (J Med Chem, 1994).
Values belong to the compound of their own block, whether it stands above or below them.

What was measured:
Canis familiaris [1] = assay: Total electrolytic excretion of potassium in urine of dogs after intravenous administration of 2.49 uM/Kg of drug; type: ADME, organism-based, Canis lupus familiaris; settings: dog, in vivo
Rattus norvegicus [2] = assay: Total electrolytic excretion of chlorine in urine of rats after peroral administration of 249 uM/Kg of drug; type: ADME, organism-based; settings: in vivo, po
Rattus norvegicus [3] = assay: Total electrolytic excretion of chlorine in urine of rats after peroral administration of 74.8 uM/Kg of drug; type: ADME, organism-based; settings: in vivo, po
Rattus norvegicus [4] = assay: Total electrolytic excretion of chlorine in urine of rats after peroral administration of 24.9 uM/Kg of drug; type: ADME, organism-based; settings: in vivo, po
Canis familiaris [5] = assay: Total electrolytic excretion of chlorine in urine of dogs after intravenous administration of 2.49 uM/Kg of drug; type: ADME, organism-based, Canis lupus familiaris; settings: dog, in vivo
Canis familiaris [6] = assay: Total electrolytic excretion of sodium in urine of dogs after intravenous administration of 2.49 uM/Kg of drug; type: ADME, organism-based, Canis lupus familiaris; settings: dog, in vivo
Rattus norvegicus [7] = assay: Total electrolytic excretion of potassium in urine of rats after peroral administration of 24.9 uM/Kg of drug; type: ADME, organism-based; settings: in vivo, po
Rattus norvegicus [8] = assay: Total electrolytic excretion of potassium in urine of rats after peroral administration of 249 uM/Kg of drug; type: ADME, organism-based; settings: in vivo, po
Rattus norvegicus [9] = assay: Tested for the diuretic activity by measuring the urinary volume after peroral administering 74.8 uM/Kg of drug in rats; type: ADME, organism-based, Urine; settings: in vivo, po
Rattus norvegicus [10] = assay: Total electrolytic excretion of sodium in urine of rats after peroral administration of 24.9 uM/Kg of drug; type: ADME, organism-based; settings: in vivo, po
Rattus norvegicus [11] = assay: Total electrolytic excretion of sodium in urine of rats after peroral administration of 249 uM/Kg of drug; type: ADME, organism-based; settings: in vivo, po
Rattus norvegicus [12] = assay: Total electrolytic excretion of sodium in urine of rats after peroral administration of 74.8 uM/Kg of drug; type: ADME, organism-based; settings: in vivo, po
Rattus norvegicus [13] = assay: Tested for the diuretic activity by measuring the urinary volume after peroral administering 24.9 uM/Kg of drug in rats; type: ADME, organism-based, Urine; settings: in vivo, po
Canis familiaris [14] = assay: Tested for the diuretic activity by measuring the urinary volume after intravenous administering 2.49 uM/Kg of drug in dogs; type: ADME, organism-based, Canis lupus familiaris, Urine; settings: dog, in vivo
Rattus norvegicus [15] = assay: Tested for the diuretic activity by measuring the urinary volume after peroral administering 249 uM/Kg of drug in rats; type: ADME, organism-based, Urine; settings: in vivo, po
Rattus norvegicus [16] = assay: Ratio of Total electrolytic excretion of sodium and potassium in urine of rats after peroral administration of 24.9 uM/Kg of drug; type: ADME, organism-based; settings: in vivo, po
Rattus norvegicus [17] = assay: Ratio of Total electrolytic excretion of sodium and potassium in urine of rats after peroral administration of 249 uM/Kg of drug; type: ADME, organism-based; settings: in vivo, po
Rattus norvegicus [18] = assay: Ratio of Total electrolytic excretion of sodium and potassium in urine of rats after intravenous administration of 2.49 uM/Kg of drug; type: ADME, organism-based; settings: in vivo
Rattus norvegicus [19] = assay: Ratio of Total electrolytic excretion of sodium and potassium in urine of rats after peroral administration of 74.8 uM/Kg of drug; type: ADME, organism-based; settings: in vivo, po
Rattus norvegicus [20] = assay: Total electrolytic excretion of potassium in urine of rats after peroral administration of 74.8 uM/Kg of drug; type: ADME, organism-based; settings: in vivo, po
Rattus norvegicus [21] = assay: Total electrolytic excretion of sodium in urine of rats after peroral administration of 239 uM/Kg of drug; type: ADME, organism-based; settings: in vivo, po
Rattus norvegicus [22] = assay: Total electrolytic excretion of potassium in urine of rats after peroral administration of 71.8 uM/Kg of drug; type: ADME, organism-based; settings: in vivo, po
Rattus norvegicus [23] = assay: Total electrolytic excretion of chlorine in urine of rats after peroral administration of 23.9 uM/Kg of drug; type: ADME, organism-based; settings: in vivo, po
Rattus norvegicus [24] = assay: Total electrolytic excretion of chlorine in urine of rats after peroral administration of 239 uM/Kg of drug; type: ADME, organism-based; settings: in vivo, po
Rattus norvegicus [25] = assay: Total electrolytic excretion of potassium in urine of rats after peroral administration of 23.9 uM/Kg of drug; type: ADME, organism-based; settings: in vivo, po
Rattus norvegicus [26] = assay: Total electrolytic excretion of potassium in urine of rats after peroral administration of 239 uM/Kg of drug; type: ADME, organism-based; settings: in vivo, po
Rattus norvegicus [27] = assay: Total electrolytic excretion of chlorine in urine of rats after peroral administration of 71.8 uM/Kg of drug; type: ADME, organism-based; settings: in vivo, po
Rattus norvegicus [28] = assay: Tested for the diuretic activity by measuring the urinary volume after peroral administering 71.8 uM/Kg of drug in rats; type: ADME, organism-based, Urine; settings: in vivo, po
Rattus norvegicus [29] = assay: Total electrolytic excretion of sodium in urine of rats after peroral administration of 71.8 uM/Kg of drug; type: ADME, organism-based; settings: in vivo, po
Rattus norvegicus [30] = assay: Tested for the diuretic activity by measuring the urinary volume after peroral administering 23.9 uM/Kg of drug in rats; type: ADME, organism-based, Urine; settings: in vivo, po
Rattus norvegicus [31] = assay: Tested for the diuretic activity by measuring the urinary volume after peroral administering 239 uM/Kg of drug in rats; type: ADME, organism-based, Urine; settings: in vivo, po
Rattus norvegicus [32] = assay: Total electrolytic excretion of sodium in urine of rats after peroral administration of 23.9 uM/Kg of drug; type: ADME, organism-based; settings: in vivo, po
Rattus norvegicus [33] = assay: Ratio of Total electrolytic excretion of sodium and potassium in urine of rats after peroral administration of 23.9 uM/Kg of drug; type: ADME, organism-based; settings: in vivo, po
Rattus norvegicus [34] = assay: Ratio of Total electrolytic excretion of sodium and potassium in urine of rats after peroral administration of 239 uM/Kg of drug; type: ADME, organism-based; settings: in vivo, po
Rattus norvegicus [35] = assay: Ratio of Total electrolytic excretion of sodium and potassium in urine of rats after peroral administration of 71.8 uM/Kg of drug; type: ADME, organism-based; settings: in vivo, po

Excretion K+ (Canis familiaris [1]): 2 m equiv | Excretion Cl- (Rattus norvegicus [2]): 1.7 m equiv | Excretion Cl- (Rattus norvegicus [3]): 1.38 m equiv | Excretion Cl- (Rattus norvegicus [4]): 0.98 m equiv | Excretion Cl- (Canis familiaris [5]): 5.4 m equiv | Excretion Na+ (Canis familiaris [6]): 8.3 m equiv | Excretion K+ (Rattus norvegicus [7]): 0.29 m equiv | Excretion K+ (Rattus norvegicus [8]): 0.42 m equiv | V (Rattus norvegicus [9]): 8.3 mL | Excretion Na+ (Rattus norvegicus [10]): 0.87 m equiv | Excretion Na+ (Rattus norvegicus [11]): 1.67 m equiv | Excretion Na+ (Rattus norvegicus [12]): 1.35 m equiv | V (Rattus norvegicus [13]): 5.3 mL | V (Canis familiaris [14]): 51 mL | V (Rattus norvegicus [15]): 10.8 mL | Ratio (Rattus norvegicus [16]): 3 | Ratio (Rattus norvegicus [17]): 4 | Ratio (Rattus norvegicus [18]): 4.8 | Ratio (Rattus norvegicus [19]): 4.1 | Excretion K+ (Rattus norvegicus [20]): 0.33 m equiv
Structure (SMILES): CCOC(=O)N1CCN(/C(=N\C2CCCCC2)NC2CCCCC2)CC1

Excretion Na+ (Rattus norvegicus [21]): 2.02 m equiv | Excretion K+ (Rattus norvegicus [22]): 0.32 m equiv | Excretion Cl- (Rattus norvegicus [23]): 1.17 m equiv | Excretion Cl- (Rattus norvegicus [24]): 2.03 m equiv | Excretion K+ (Rattus norvegicus [25]): 0.39 m equiv | Excretion K+ (Rattus norvegicus [26]): 0.45 m equiv | Excretion Cl- (Rattus norvegicus [27]): 1.59 m equiv | V (Rattus norvegicus [28]): 9.5 mL | Excretion Na+ (Rattus norvegicus [29]): 1.46 m equiv | V (Rattus norvegicus [30]): 6.6 mL | V (Rattus norvegicus [31]): 14 mL | Excretion Na+ (Rattus norvegicus [32]): 1.02 m equiv | Ratio (Rattus norvegicus [33]): 2.6 | Ratio (Rattus norvegicus [34]): 4.5 | Ratio (Rattus norvegicus [35]): 4.6
Structure (SMILES): FC(F)(F)c1cccc(N/C(=N/C2CCCCC2)N2CCOCC2)c1
